Data taken from patent publication US20250359578A1, “WATER-SOLUBLE CREATINE AGGLOMERATE” (Alzchem Trostberg GmbH, priority 2022, published 2025).

Columns and labels:
Type in all cases: physicochemical
[1] = Determination of the grain size distribution (laser diffraction, HELOS/KR)
Method: 7. Determination of the Grain Size Distribution
The grain size distribution was determined using a laser diffraction method on a “HELOS/KR” grain size measuring device from Sympatec GmbH. The R6 measuring aperture was used, which covers a measuring range of 0.5 to 1750 μm. The sample was fed via a vibrating chute with 60% power and a dispersion pressure of 2.5 bar. The software version “WINDOX 5.1.2.0, LD” was used for evaluation. Setting the trigger conditions: Time base 100.00 ms, start at c.opt>=1.0%, validity c.opt from 1.0% to 14.0%, stop at 5.000s c.opt<=0.9% or 10.000s real time. The x10, x50 and x90 values were used to assess the agglomerate quality, represented as the distribution sum Q3 in a histogram of the grain size distribution.

[2] = Determination of flowability (Evolution Powder Tester); settings: compression, no time consolidation
Method: 4. Determination of Flowability
Flowability of solids (powders and agglomerates) is determined using the “Evolution Powder Tester” measuring device from PS Prozesstechnik GmbH, Basel, Switzerland. Flowability is shown in the dimensionless number [ffc]. The method used is determination by compression on the Evolution Powder Tester; no time consolidation is carried out. For this purpose, 25 mL of the solid is weighed into the measuring cell and placed in the measuring device. After starting the measurement, the solid is compressed in the measuring cell at a stamping speed of 15 mm per minute and a force (F1) of 10000 kPa for 30 seconds. The resulting solid compact in the measuring cell is then loaded again with a stamping speed of 10 mm per minute and slowly increasing force (F2) until the solid compact breaks. The ratio of the force (F1) for compression and the force (F2) for breaking the compact corresponds to the flowability [ffc] and is calculated using the formula: […]
The following assessment applies to the classification of flowability [ffc]: […]

[3] = Determination of pourability (drainage funnel); parameters: key: Solid trickles through the 2.5 mm outlet: Grade 1; Solid trickles through the 5 mm outlet: Grade 2; Solid trickles through the 8 mm outlet: Grade 3; Solid trickles through the 12 mm outlet: Grade 4; Solid trickles through the 18 mm outlet: Grade 5; Solid does not trickle through the 18 mm outlet: Grade 6; settings: grade by outlet diameter of test funnel, 50 mL sample; lower grade is better
Method: 2. Determination of Pourability (Drainage Funnel):
The test equipment consists of five test funnels with the same diameter (36 mm inner diameter) and 28 degree tilt, but with different outlet diameters (2.5 mm; 5 mm; 8 mm; 12 mm and 18 mm). A 50 mL sample of creatine or the creatine formulation is filled into the test funnel, whereby the outlet is closed from below so that no material can drain during filling. In the next step, the outlet is opened completely—without shaking the test funnel—so that the entire outlet cross-section is released. The evaluation parameter is the diameter at which the solid trickles through independently and without external influence.
The lower the grade, the better the pourability.

[4] = Determination of the bulk density (DIN ISO 697)
Method: 6. Determination of the Bulk Density
The bulk density was determined according to the method DIN ISO 697 (1984-01) surfactants; detergents; determination of bulk density; method by measuring the mass of a given volume.
The higher the bulk density, the more advantageous the handling.

[5] = Determination of the angle of repose (DIN ISO 4324)
Method: 3. Determination of the Angle of Repose
The angle of repose was determined according to the method DIN ISO 4324 (1983-12) Surfactants; powders and granules; determination of the angle of repose. The smaller the angle of repose, the better the flow properties.

[6] = Determination of dustiness (DustView II); settings: 30.0 g sample, maximum attenuation plus value at 30 seconds
Method: 5. Determination of Dustiness
The dustiness of solids (powders and agglomerates) is represented in the dimensionless dust number. The dust number is determined using the DustView II dust measuring device from Palas GmbH, Karlsruhe.
Thereby, 30.0 g of a sample is weighed and placed in the funnel on the flap. The measurement is then started by pressing a button on the control panel. The flap opens and the solid falls freely into the dust box. The impact of the solid material whirls up the dust particles. As a result, the light beam emitted by the laser is attenuated by the swirling dust and the attenuated light beam is detected at the receiver. The degree of attenuation (transmission signal) compared to the light beam emitted by the light source is a measure of the dustiness of the solid. A value of 100 means the maximum possible attenuation of the light beam and a value of 0 means no attenuation of the light beam. To determine the dust number, the value of the maximum attenuation of the light beam is added to the value at 30 seconds after the start of the measurement and output as the dust number.
The lower the dust number, the less dusty the solid is.

[7] = Determination of the dissolution rate (mass of filter residue); settings: 1.75 g in 175 ml water at 23° C., stirred 10 seconds
Excerpt: The moist filter residue is dried. The mass of the filter residue serves as a measure of the dissolution rate; the lower the mass, the better the dissolution rate.

SMILES	Grain size distribution ×10 value ([1]; distribution sum Q3)	Grain size distribution ×90 value ([1]; distribution sum Q3)	Grain size distribution ×50 value ([1]; distribution sum Q3, monohydrate)	Flowability [ffc] [2]	Pourability [3]	Bulk density [4]	Angle of repose [5]	Dustiness [dust number] [6]	Grain size distribution ×50 value ([1]; distribution sum Q3, listed as non-ground creatine monohydrate, monohydrate)	Undissolved portion to 1.75 g [7]
CN(CC(=O)O)C(=N)N.O [Example 6, creatine monohydrate]	1.32 μm	45.8 μm	13.0 μm	1.9	6	270 g/L	54 °	23.2	–	–
CN(CC(=O)O)C(=N)N.O [creatine monohydrate]	–	–	–	–	–	–	–	–	171 μm	632.9 mg
